Experimental findings from US20240409585A1, “MACROCYCLIC IMMUNOMODULATORS” (priority 2021, published 2024) are described below.

Each structure is given as a SMILES string. Numbered stars: 1 amine (or outer) side, 2 acyl side, 3 side chain; on linkers, the order of the positions; unused ones are H or OH. Bridge positions count the residues as written; N and C are the ends. Square brackets hold non-standard residues; d marks the D form. Peptide text beside a SMILES is read from it. * marks the point of attachment. ξ: configuration not given here. Tyr(3-NO2) = N[C@@H](Cc1ccc(O)c([N+](=O)[O-])c1)C(=O)O; X39 = COc1cccc(-c2ccc(C[C@H](N[*:1])C(=O)[*:2])cc2)c1; Phe(4-CONH2) = NC(=O)c1ccc(C[C@H](N)C(=O)O)cc1; Phe(4-COOH) = N[C@@H](Cc1ccc(C(=O)O)cc1)C(=O)O; Phe(3,4-F2) = N[C@@H](Cc1ccc(F)c(F)c1)C(=O)O; X16 = O=C([C@H](Cc1ccc2cnccc2c1)N[*:1])[*:2]; Bip = N[C@@H](Cc1ccc(-c2ccccc2)cc1)C(=O)O; Phe(2-Br) = N[C@@H](Cc1ccccc1Br)C(=O)O; Phe(3-Me) = Cc1cccc(C[C@H](N)C(=O)O)c1; 4Pal = N[C@@H](Cc1ccncc1)C(=O)O; Cha = N[C@@H](CC1CCCCC1)C(=O)O; Ile(3ξ) = CCC(C)[C@H](N)C(=O)O; Thr(3ξ) = CC(O)[C@H](N)C(=O)O; Carboxymethyl = O=C(O)C*; NMeA = CN[C@@H](C)C(=O)O; Orn = NCCC[C@H](N)C(=O)O; Dab = NCC[C@H](N)C(=O)O

T1 sequence (Q15116 25-288): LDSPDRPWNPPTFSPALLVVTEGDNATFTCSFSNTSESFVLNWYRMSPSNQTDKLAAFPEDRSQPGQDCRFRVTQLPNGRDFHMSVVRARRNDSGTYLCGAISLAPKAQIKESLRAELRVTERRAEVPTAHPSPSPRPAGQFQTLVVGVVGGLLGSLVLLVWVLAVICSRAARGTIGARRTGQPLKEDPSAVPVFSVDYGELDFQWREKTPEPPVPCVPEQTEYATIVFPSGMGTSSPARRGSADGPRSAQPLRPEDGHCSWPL

This experiment concerns the target T1, PE-labeled human PD-L1-Ig binding to Jurkat cell line over-expressing human PD-1 (Jurkat-PD-1) (Homo sapiens, UniProt Q15116).
T1 construct: expressed in transfected cells; host or cells: Jurkat
In words: Jurkat-PD-1 Cell Binding High-Content Screening Assay (CBA): Method 1. The conditions noted are these: Jurkat-hPD-1 cells, PE-labeled PD-L1-Ig 20 nM final; read-out: Jurkat HPDL1 PD1 IC50 (uM) (Method 1).
Regarding `CC(C)C[C@@H]1NC(=O)[C@H](CCCNC(=N)N)NC(=O)[C@@H](Cc2cnc[nH]2)NC(=O)[C@H](C)N(C)C(=O)[C@H](CCCNC(=N)N)NC(=O)[C@H](Cc2ccc(-c3ccccc3)cc2)NC(=O)[C@H](C(C)C)NC(=O)[C@H](Cc2c[nH]c3ccccc23)NC(=O)[C@H](CC(=O)O)NC(=O)[C@H](Cc2ccc(O)cc2)NC(=O)[C@H](Cc2ccccc2)NC(=O)CSC[C@@H](C(=O)NCC(N)=O)NC(=O)[C@H](CO)NC(=O)[C@H](C(C)C)NC1=O` [Compound 1022] ({CH2CO}-FYDWV[Bip]R[NMeA][dH]RLVSCG-NH2; thioether N-14), the IC50 (as a rule, the point on the concentration scale where inhibition reaches its midpoint) is 0.64 µM.
Regarding `CCC(C)[C@@H]1NC(=O)[C@H](Cc2ccc(-c3ccccc3)cc2)NC(=O)[C@H](C(C)C)NC(=O)[C@H](Cc2cccc(C)c2)NC(=O)[C@H](CC(=O)O)NC(=O)[C@H](Cc2ccc(C(=O)O)cc2)NC(=O)[C@H](Cc2ccncc2)NC(=O)CSC[C@@H](C(N)=O)NC(=O)[C@H](CCCN)NC(=O)[C@H](C(C)C)NC(=O)[C@H](CC(C)C)NC(=O)[C@H](CCN)NC(=O)[C@@H](CC(C)C)NC(=O)[C@H](C)N(C)C1=O` (stereo partly drawn) [Compound 1900] ({CH2CO}-[4Pal][Phe(4-COOH)]D[Phe(3-Me)]V[Bip][Ile(3ξ)][NMeA][dL][Dab]LV[Orn]C-NH2; thioether N-14), the half-inhibitory concentration (IC50) was 0.05 µM.
Then `CC(C)C[C@@H]1NC(=O)[C@H](Cc2c[nH]c3ccccc23)NC(=O)[C@H](CC(=O)O)NC(=O)[C@H](Cc2ccccc2Br)NC(=O)[C@H](Cc2ccccc2)NC(=O)CSC[C@@H](C(=O)N[C@@H](C)C(N)=O)NC(=O)[C@H](CO)NC(=O)[C@H](C(C)C)NC(=O)[C@H](CC(C)C)NC(=O)[C@H](CC(N)=O)NC(=O)[C@@H](C)NC(=O)[C@H](C)N(C)C(=O)[C@H](C(C)C)NC(=O)[C@H](Cc2ccc(-c3ccccc3)cc2)NC1=O` [Compound 1823] ({CH2CO}-F[Phe(2-Br)]DWL[Bip]V[NMeA][dA]NLVSCA-NH2; thioether N-14), with 0.6 µM.
Then `CC(C)C[C@@H]1NC(=O)[C@H](Cc2c[nH]c3ccccc23)NC(=O)[C@H](CC(=O)O)NC(=O)[C@H](Cc2ccc(OCC(=O)O)cc2)NC(=O)[C@H](Cc2ccccc2)NC(=O)CSC[C@@H](C(=O)N[C@@H](C)C(N)=O)NC(=O)[C@H](CO)NC(=O)[C@H](C(C)C)NC(=O)[C@H](CC(C)C)NC(=O)[C@H](CC(N)=O)NC(=O)[C@@H](C)NC(=O)[C@H](C)N(C)C(=O)[C@H](C(C)C)NC(=O)[C@H](Cc2ccc(-c3ccccc3)cc2)NC1=O` [Compound 1737] ({CH2CO}-FY(Carboxymethyl)DWL[Bip]V[NMeA][dA]NLVSCA-NH2; thioether N-14), with 0.02 µM; and `CC(C)C[C@@H]1NC(=O)[C@H](CCCNC(=N)N)NC(=O)[C@@H](CC(C)C)NC(=O)[C@H](C)N(C)C(=O)[C@H](CCCNC(=N)N)NC(=O)[C@H](Cc2ccc(-c3ccccc3)cc2)NC(=O)[C@H](C(C)C)NC(=O)[C@H](Cc2ccc(F)c(F)c2)NC(=O)[C@H](CC(=O)O)NC(=O)[C@H](Cc2ccc(O)cc2)NC(=O)[C@H](CC(N)=O)NC(=O)CSC[C@@H](C(=O)N[C@@H](C)C(N)=O)NC(=O)[C@H]([C@@H](C)O)NC(=O)[C@H](C(C)C)NC1=O` [Compound 1194] ({CH2CO}-NYD[Phe(3,4-F2)]V[Bip]R[NMeA][dL]RLVTCA-NH2; thioether N-14), with 0.69 µM.
Then `COc1cccc(-c2ccc(C[C@@H]3NC(=O)[C@H](C(C)C)NC(=O)[C@H](Cc4c[nH]c5ccccc45)NC(=O)[C@H](CC(=O)O)NC(=O)[C@H](Cc4ccc(O)cc4)NC(=O)[C@H](CC(N)=O)NC(=O)CSC[C@@H](C(=O)N[C@@H](C)C(N)=O)NC(=O)[C@H]([C@@H](C)O)NC(=O)[C@H](C(C)C)NC(=O)[C@H](CC(C)C)NC(=O)[C@H](CCN)NC(=O)[C@@H](CC(C)C)NC(=O)[C@H](C)N(C)C(=O)[C@H](CCCNC(=N)N)NC3=O)cc2)c1` [Compound 1211] ({CH2CO}-NYDWV[X39]R[NMeA][dL][Dab]LVTCA-NH2; thioether N-14), with 0.37 µM; and `CC(C)C[C@@H]1NC(=O)[C@H](Cc2c[nH]c3ccccc23)NC(=O)[C@H](CC(=O)O)NC(=O)[C@H](Cc2ccc(C(N)=O)cc2)NC(=O)[C@H](Cc2ccccc2)NC(=O)CSC[C@@H](C(=O)N[C@@H](C)C(N)=O)NC(=O)[C@H](CO)NC(=O)[C@H](C(C)C)NC(=O)[C@H](CC(C)C)NC(=O)[C@H](CC(N)=O)NC(=O)[C@@H](C)NC(=O)[C@H](C)N(C)C(=O)[C@H](C(C)C)NC(=O)[C@H](Cc2ccc(-c3ccccc3)cc2)NC1=O` [Compound 1740] ({CH2CO}-F[Phe(4-CONH2)]DWL[Bip]V[NMeA][dA]NLVSCA-NH2; thioether N-14), with 0.02 µM.
As for `CC[C@H](C)[C@@H]1NC(=O)[C@H](Cc2ccc(-c3ccccc3)cc2)NC(=O)[C@H](C(C)C)NC(=O)[C@H](Cc2c[nH]c3ccccc23)NC(=O)[C@H](CC(=O)O)NC(=O)[C@H](Cc2ccc(O)cc2)NC(=O)[C@H](Cc2ccccc2)NC(=O)CSC[C@@H](C(=O)N[C@@H](C)C(N)=O)NC(=O)[C@H]([C@@H](C)O)NC(=O)[C@H](C(C)C)NC(=O)[C@H](CC2CCCCC2)NC(=O)[C@H](CCCNC(=N)N)NC(=O)[C@@H](CC(C)C)NC(=O)[C@H](C)N(C)C1=O` [Compound 1494] ({CH2CO}-FYDWV[Bip]I[NMeA][dL]R[Cha]VTCA-NH2; thioether N-14), the 50% inhibitory concentration (IC50) is 0.05 µM.
Then `CC(C)C[C@@H]1NC(=O)[C@H](Cc2c[nH]c3ccccc23)NC(=O)[C@H](CC(=O)O)NC(=O)[C@H](Cc2ccc(C(=O)O)cc2)NC(=O)[C@H](CC(N)=O)NC(=O)CSC[C@@H](C(=O)N[C@@H](C)C(N)=O)NC(=O)[C@H](CO)NC(=O)[C@H](C(C)C)NC(=O)[C@H](CC(C)C)NC(=O)[C@H](CC(N)=O)NC(=O)[C@@H](C)NC(=O)[C@H](C)N(C)C(=O)[C@H](C(C)C)NC(=O)[C@H](Cc2ccc(-c3ccccc3)cc2)NC1=O` [Compound 1754] ({CH2CO}-N[Phe(4-COOH)]DWL[Bip]V[NMeA][dA]NLVSCA-NH2; thioether N-14), with 0.03 µM.
Then `CCC(C)[C@@H]1NC(=O)[C@H](Cc2ccc(-c3ccccc3)cc2)NC(=O)[C@H](C(C)C)NC(=O)[C@H](Cc2c[nH]c3ccccc23)NC(=O)[C@H](CC(=O)O)NC(=O)[C@H](Cc2ccc(O)cc2)NC(=O)[C@H](Cc2ccc3cnccc3c2)NC(=O)CSC[C@@H](C(=O)N[C@@H](C)C(N)=O)NC(=O)[C@H](C(C)O)NC(=O)[C@H](C(C)C)NC(=O)[C@H](CC2CCCCC2)NC(=O)[C@H](CCN)NC(=O)[C@@H](CC(C)C)NC(=O)[C@H](C)N(C)C1=O` (stereo partly drawn) [Compound 2046] ({CH2CO}-[X16]YDWV[Bip][Ile(3ξ)][NMeA][dL][Dab][Cha]V[Thr(3ξ)]CA-NH2; thioether N-14), with 0.02 µM.
On to `CC(C)C[C@@H]1NC(=O)[C@H](Cc2c[nH]c3ccccc23)NC(=O)[C@H](CC(=O)O)NC(=O)[C@H](Cc2ccc(O)c([N+](=O)[O-])c2)NC(=O)[C@H](Cc2ccccc2)NC(=O)CSC[C@@H](C(=O)N[C@@H](C)C(N)=O)NC(=O)[C@H](CO)NC(=O)[C@H](C(C)C)NC(=O)[C@H](CC(C)C)NC(=O)[C@H](CC(N)=O)NC(=O)[C@@H](C)NC(=O)[C@H](C)N(C)C(=O)[C@H](C(C)C)NC(=O)[C@H](Cc2ccc(-c3ccccc3)cc2)NC1=O` [Compound 1738] ({CH2CO}-F[Tyr(3-NO2)]DWL[Bip]V[NMeA][dA]NLVSCA-NH2; thioether N-14), for which the IC50 is 0.02 µM.
